According to patent US9034403B2, “Yeast extract containing γ-Glu-X or γ-Glu-X-Gly and a method for producing the same” (AJINOMOTO CO., INC., priority 2010, dated 2015):
Peptide text beside a SMILES is read from it.

Legend:
[1] = tested on: Saccharomyces cerevisiae S288C strain; experiment: Addition of Val-Gly to the S288C strain in SDP medium, γ-Glu-Val-Gly in dry cells; format: cell-based; conditions: Val-Gly 100 ppm added to SDP medium in advance, culture 24 hours
Procedure: One loop of the S288C strain was inoculated into SDP medium (ammonium sulfate used for the preparation of the SD medium was replaced with proline, final concentration of proline was 0.1 g/L, 50 ml in a 500 ml-volume Sakaguchi flask), and cultured at 30° C. for 24 hours with shaking at a velocity of 120 rpm. Absorbance of the resulting culture broth was measured, the culture broth was inoculated into SDP medium (400 ml in a 2 L-volume conical flask with baffle fins, two or more flasks) so that OD660 was 0.01 at the start of the culture, and culture was performed at 30° C. for 24 hours with shaking by rotation at a velocity of 120 rpm. To the SDP medium, Val-Gly (purchased from Bachem) was added in advance to a final concentration of 100 ppm. Using the culture broth, the amount of γ-Glu-Val-Gly in dry cells was calculated in the same manner as that of Example 2.

[2] = tested on: S288C, S288C PADH1-HGT1, S288C PADH1-PTR2; experiment: γ-Glu-Val-Gly producing ability from Val-Gly of Hgt1p or Ptr2p overproducing strains; format: cell-based, Saccharomyces cerevisiae; conditions: 100 ppm Val-Gly in SD medium, 20 hours
Procedure: S288C PADH1-HGT1, Hgt1p overproducing strain obtained in Example 12, S288C PADH1-PTR2, Ptr2p overproducing strain obtained in Example 12, and their parental strain S288C were evaluated for their γ-Glu-Val-Gly producing abilities from Val-Gly. Each strain was cultivated in 50-ml tubes containing 10 ml of SD medium with 100 ppm Val-Gly as a final concentration. Tubes were inoculated by overnight culture of corresponding strain at initial OD600=0.01, and placed in rotation shaker at 240 rpm, 30° C. Cultivation time was for 20 hours. Then, cells from 2 ml of broth culture were harvested by centrifugation, and washed with 1 ml of milliQ water three times. Then, washed cells were suspended in 1 ml of milliQ and incubated at 70° C. for 10 min with a water bath to extract intracellular materials. After cell debris and the extract were separated by centrifugation, the aqueous phase was transferred to a clean vial and then the vial was vacuum-dried. Thus, the dried extract was prepared. Then γ-Glu-Val-Gly in the dried extract was measured with LC-MS/MS analysis as described in Example 12.

Structure (SMILES): CC(C)[C@H](N)C(=O)NCC(=O)O [Val-Gly] (H-Val-Gly-OH)
- γ-Glu-Val-Gly in dry cells [1]: 2 ppm
- γ-Glu-Val-Gly in the dried extract ([2]; strain S288C PADH1-HGT1): 0.03 μg 1^−1 OD600^−1
- γ-Glu-Val-Gly in the dried extract ([2]; strain S288C PADH1-PTR2): 8.89 μg 1^−1 OD600^−1
- γ-Glu-Val-Gly in the dried extract ([2]; strain S288C): 0.04 μg 1^−1 OD600^−1
